Where a name gives a salt, the structure may show the parent alone. Read-outs that look alike come from different tables or passages of the source.
How the values were obtained:
[1] = Determination of the 50% lethal dose (LD50) in mice; details: mouse, in vivo
Protocol: A. Determination of the 50% lethal dose (LD50) in mice
The derivatives studied were administered intraperitoneally and orally to groups made up of five male mice and five female mice, at a rate of 0.1 ml per ten grams of body weight.

rats = test: Determination of the minimal lethal dose (MLD) in rats; assay type: in vivo, rat; details: male rats, doses 75 and 150 mg/kg
Protocol: B. Determination of the minimal lethal dose (MLD) in rats
The derivatives studied were administered intraperitoneally to two groups made up of 5 male rats.
The following doses were used: 75 and 150 mg/kg.

[2] = system: pain syndrome caused by phenylbenzoquinone (PBQ); test: Peripheral analgesic activity (phenylbenzoquinone-induced abdominal twisting); assay type: in vivo; details: Mus musculus, ip
Protocol: F--Peripheral analgesic activity
A peritoneal pain is caused in mice by the intraperitoneal injection of phenylbenzoquinone (PBQ). The test assesses the decrease in the pain syndrome, characterized by an abdominal twisting movement, which is caused by injecting the test product thirty minutes before the administration of PBQ.
The 50% effective dose is calculated from the percentage decrease in the pain syndrome relative to the control animals.

[3] = system: contractions induced by histamine hydrochloride in isolated guinea-pig ileum; test: Study on an isolated organ (guinea-pig ileum), antagonism of histamine contractions; details: 35° C., Tyrode's solution
Protocol: I--Study on an isolated organ (guinea-pig ileum)
This test assesses antagonism towards the contractions induced by histamine hydrochloride in isolated guinea-pig ileum kept at 35° C. in Tyrode's solution.

[4] = system: histamine-induced bronchospasm; test: Bronchospasm by inhalation of a histamine solution; assay type: in vivo; details: Cavia porcellus, guinea-pig
Protocol: J--Bronchospasm by inhalation of a histamine solution
Guinea-pigs are placed in a closed chamber into which histamine is introduced as an aerosol, and only those which show very distinct signs of asphyxia within four minutes are selected.
The substance to be studied is administered to groups of guinea-pigs thirty minutes before a further period in the chamber in order to check the resistance to histamine. A guinea-pig is considered to be protected if it resists the histamine aerosol for ten minutes without showing signs of asphyxia.
A 50% effective dose is calculated from the results obtained.

[5] = system: lethal dose of histamine (histaminic shock); test: Antihistaminic activity (protection from a lethal dose of histamine, histaminic shock); assay type: in vivo; details: Cavia porcellus, po; guinea-pig, p.o. by position of the head; histamine 1 mg/kg i.v.
Protocol: K--Antihistaminic activity
This test assesses the dose which protects fifty per cent of guinea-pigs from a lethal dose of histamine.
The product is administered thirty minutes before the intravenous injection of histamine hydrochloride (1 mg/kg).
The 50% effective dose is calculated from the results obtained.

anaphylactic shock = test: Test for assessing the dose which protects 50% of guinea-pigs from anaphylactic shock; assay type: in vivo; details: Cavia porcellus, po; guinea-pig, p.o., 45 min before horse serum i.v.; read-out: ED50 protecting 50% of guinea-pigs from anaphylactic shock
Protocol: L--Test for assessing the dose which protects 50% of guinea-pigs from anaphylactic shock
This test was carried out according to the following protocol:
Intraperitoneal administration to guinea-pigs of 2 ml of 20% horse serum in physiological solution for three days: D1, D3 and D5.
Trigger action: on D15, oral administration of the test product 45 minutes before the intravenous injection of 0.5 ml of pure horse serum.

motor activity of mice = test: Study of the spontaneous motility (motor activity, photoelectric actimeter); assay type: in vivo, mouse; details: i.p., comparative test, the number is the dose of the effect
Protocol: A--Study of the spontaneous motility
The motor activity of mice was determined with the aid of a Boissier and Simon photoelectric actimeter.
The mice are placed in groups of five in a box closed with a lid, through which two perpendicular light rays pass; the mice cut off these rays when they move.
These movements are measured by a counter, which is read after thirty minutes and one hour.

[6] = system: exploration behavior of mice; test: Exploration behavior (automated hole-board); assay type: in vivo; details: Mus musculus, ip, comparative test
Excerpt: Thirty minutes after the intraperitoneal administration of the derivatives according to the invention, each mouse is placed on an automated hole-board for five minutes and the number of holes explored is noted every minute.
(§1) A 50% effective dose can be calculated from the results obtained.

[7] = system: muscle-relaxing action in mice; test: Muscle-relaxing action (traction test); assay type: in vivo; details: Mus musculus, ip, comparative test
Excerpt: D--Muscle-relaxing action (traction test)
This test assesses the presence or absence of redressments in a mouse brought up to a horizontal wire with its front paws.
The number of mice which are unable to grip the wire with one of their back paws within five seconds is noted.
as §1

[8] = system: sleep induced by pentobarbital; test: Interaction with pentobarbital; assay type: in vivo; details: Mus musculus, ip, read-out: Interaction with pentobarbital ED50
Excerpt: E--Interaction with pentobarbital
as §1

[9] = read-out: Peripheral analgesic activity (mouse) (ED50)
[10] = ip, i.p., first value under bronchospasm, read-out: Bronchospasm (guinea-pig) (ED50), i.p.
[11] = po, second value under bronchospasm, p.o. by position, read-out: Bronchospasm (guinea-pig) (ED50), second value

Compound: CCOC(=O)CC1CCN(CCOC(c2ccccc2)c2ccccc2)CC1 [Example 3, maleate of ethyl 1-(benzhydryloxyethyl)piperidino-4-acetate]
- LD50 ([1]; ip, read-out: LD50 (i.p.)): 160 mg/kg
- LD50 ([1]; po, read-out: LD50 (p.o.)): 585 mg/kg
- MLD (i.p.) (rats): 75 mg/kg
- ED50 [2, 9]: 1.9 mg/kg
- "In vitro" test (isolated ileum) (ED50) [3]: 8.0 µg
- ED50 [4, 10]: 0.097 mg/kg
- ED50 [4, 11]: 0.223 mg/kg
- ED50 [5]: 0.061 mg/kg
- ED50 (anaphylactic shock): 0.829 mg/kg

Compound: CCOC(=O)C=C1CCN(CCOC(c2ccccc2)c2ccccc2)CC1 [Example 2, ethyl 1-(benzhydryloxyethyl)piperidin-4-ylideneacetate]
- LD50 ([1]; ip, read-out: LD50 (i.p.)): 300 mg/kg
- ED50 [2, 9]: 1.9 mg/kg
- "In vitro" test (isolated ileum) (ED50) [3]: > 10 µg
- ED50 [4, 10]: 0.65 mg/kg
- ED50 [4, 11]: 0.21 mg/kg
- ED50 [5]: 0.25 mg/kg

Compound: CCOC(=O)C1CCN(CCOC(c2ccccc2)c2ccccc2)CC1 [Example 4, fumarate of 4-carbethoxy-1-benzhydryloxyethylpiperidine]
- LD50 ([1]; ip, read-out: LD50 (i.p.)): 456 mg/kg
- "In vitro" test (isolated ileum) (ED50) [3]: 5 µg
- ED50 [4, 10]: 0.46 mg/kg
- ED50 [4, 11]: 0.49 mg/kg
- ED50 [5]: 0.334 mg/kg

Compound: CC(C)(C)c1ccc(C(O)CCCN2CCC(C(O)(c3ccccc3)c3ccccc3)CC2)cc1 (stereo not shown) [Terfenadine]
- Motor activity, significant decrease at (motor activity of mice): 25 mg/kg
- ED50 [6]: 37 mg/kg
- ED50 [7]: 31 mg/kg
- ED50 [8]: 25 mg/kg
- ED50 ([2]; mice, i.p., comparative test, read-out: Peripheral analgesic activity ED50): 3.1 mg/kg

Reference: patent US4983614A, “Benzhydryloxyethylpiperidine derivatives, process for their preparation and pharmaceutical compositions, in which they are present” (priority 1986, dated 1991)
